Where two headings read alike, the source gives them in different places. Positions of bridges follow the written chain, without caps; N, C: chain ends. Non-standard residues stand in square brackets, D forms with d. Residues, ends and D or L forms follow the SMILES beside them. 1Nal = N[C@@H](Cc1cccc2ccccc12)C(=O)O; Abu = CC[C@H](N)C(=O)O
How the values were obtained:
Experiment in all cases: cell-based
[1] = target: hNav1.7 (Homo sapiens, UniProt Q15858); type: cell-based; conditions: IonWorks Quattro, read-out: IWQ Use Nav1.7
[2] = target: hNav1.5 (Homo sapiens, UniProt Q14524)
[3] = target: hNav1.3 (Homo sapiens, UniProt Q9NY46); conditions: IonWorks Quattro, read-out: IWQ Use Nav1.3
[4] = IonWorks Quattro, use-dependent block, hNav1.5, read-out: IWQ Use Nav1.5
[5] = clamped to −110 mV, depolarized to −10 mV, 5 min after compound, n=2

Chain of hNav1.5 (Q14524 whole entry, looked up): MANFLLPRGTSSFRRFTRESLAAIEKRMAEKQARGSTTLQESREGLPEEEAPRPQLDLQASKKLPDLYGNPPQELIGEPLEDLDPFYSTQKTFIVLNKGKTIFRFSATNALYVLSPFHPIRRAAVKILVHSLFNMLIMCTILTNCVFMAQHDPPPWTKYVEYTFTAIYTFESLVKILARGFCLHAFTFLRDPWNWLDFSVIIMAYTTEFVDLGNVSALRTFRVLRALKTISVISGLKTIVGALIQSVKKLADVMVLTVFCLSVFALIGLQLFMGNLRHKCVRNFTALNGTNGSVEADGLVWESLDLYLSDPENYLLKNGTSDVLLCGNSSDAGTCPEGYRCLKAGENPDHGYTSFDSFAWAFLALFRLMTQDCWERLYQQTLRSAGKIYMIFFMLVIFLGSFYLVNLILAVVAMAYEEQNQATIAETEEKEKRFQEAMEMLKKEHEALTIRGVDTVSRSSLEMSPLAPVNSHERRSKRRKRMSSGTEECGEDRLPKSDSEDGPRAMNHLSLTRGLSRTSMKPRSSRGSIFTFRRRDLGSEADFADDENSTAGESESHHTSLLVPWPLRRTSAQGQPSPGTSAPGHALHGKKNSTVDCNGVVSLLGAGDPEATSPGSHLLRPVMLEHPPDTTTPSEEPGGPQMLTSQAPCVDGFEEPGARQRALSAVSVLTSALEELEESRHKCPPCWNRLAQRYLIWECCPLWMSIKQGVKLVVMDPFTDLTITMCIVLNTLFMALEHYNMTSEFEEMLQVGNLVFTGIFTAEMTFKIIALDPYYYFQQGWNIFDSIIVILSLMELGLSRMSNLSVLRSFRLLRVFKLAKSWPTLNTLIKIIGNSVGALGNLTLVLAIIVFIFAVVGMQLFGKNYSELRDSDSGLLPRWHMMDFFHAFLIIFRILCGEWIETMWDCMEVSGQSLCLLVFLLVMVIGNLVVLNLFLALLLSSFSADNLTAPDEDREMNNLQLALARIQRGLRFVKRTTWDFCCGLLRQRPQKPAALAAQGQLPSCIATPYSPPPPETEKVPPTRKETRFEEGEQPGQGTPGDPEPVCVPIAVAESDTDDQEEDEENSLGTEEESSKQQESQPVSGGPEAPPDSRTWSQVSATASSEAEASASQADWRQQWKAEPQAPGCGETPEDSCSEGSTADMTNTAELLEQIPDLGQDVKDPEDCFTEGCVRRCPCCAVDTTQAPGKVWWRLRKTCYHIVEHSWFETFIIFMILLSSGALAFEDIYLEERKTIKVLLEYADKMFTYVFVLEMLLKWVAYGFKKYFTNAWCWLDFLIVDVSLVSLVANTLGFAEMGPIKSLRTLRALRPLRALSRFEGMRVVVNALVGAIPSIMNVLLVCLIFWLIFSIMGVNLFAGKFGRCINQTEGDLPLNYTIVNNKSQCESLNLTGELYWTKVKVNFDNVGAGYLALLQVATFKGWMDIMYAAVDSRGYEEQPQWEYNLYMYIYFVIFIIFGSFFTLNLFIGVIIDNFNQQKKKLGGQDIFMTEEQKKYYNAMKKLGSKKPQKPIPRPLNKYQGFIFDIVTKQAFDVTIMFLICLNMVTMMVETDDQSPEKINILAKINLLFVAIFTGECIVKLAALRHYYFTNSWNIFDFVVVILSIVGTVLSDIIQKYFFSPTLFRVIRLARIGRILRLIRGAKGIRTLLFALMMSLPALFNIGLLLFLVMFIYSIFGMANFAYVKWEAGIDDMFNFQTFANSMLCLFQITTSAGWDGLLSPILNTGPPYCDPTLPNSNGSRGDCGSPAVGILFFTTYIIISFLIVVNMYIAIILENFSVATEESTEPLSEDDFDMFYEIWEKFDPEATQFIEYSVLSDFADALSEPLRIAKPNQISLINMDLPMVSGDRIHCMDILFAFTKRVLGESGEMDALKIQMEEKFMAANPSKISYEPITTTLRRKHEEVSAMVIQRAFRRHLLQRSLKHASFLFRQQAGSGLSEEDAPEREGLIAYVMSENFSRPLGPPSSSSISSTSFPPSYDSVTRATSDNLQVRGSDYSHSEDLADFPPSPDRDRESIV
Chain of hNav1.7 (Q15858 whole entry, looked up): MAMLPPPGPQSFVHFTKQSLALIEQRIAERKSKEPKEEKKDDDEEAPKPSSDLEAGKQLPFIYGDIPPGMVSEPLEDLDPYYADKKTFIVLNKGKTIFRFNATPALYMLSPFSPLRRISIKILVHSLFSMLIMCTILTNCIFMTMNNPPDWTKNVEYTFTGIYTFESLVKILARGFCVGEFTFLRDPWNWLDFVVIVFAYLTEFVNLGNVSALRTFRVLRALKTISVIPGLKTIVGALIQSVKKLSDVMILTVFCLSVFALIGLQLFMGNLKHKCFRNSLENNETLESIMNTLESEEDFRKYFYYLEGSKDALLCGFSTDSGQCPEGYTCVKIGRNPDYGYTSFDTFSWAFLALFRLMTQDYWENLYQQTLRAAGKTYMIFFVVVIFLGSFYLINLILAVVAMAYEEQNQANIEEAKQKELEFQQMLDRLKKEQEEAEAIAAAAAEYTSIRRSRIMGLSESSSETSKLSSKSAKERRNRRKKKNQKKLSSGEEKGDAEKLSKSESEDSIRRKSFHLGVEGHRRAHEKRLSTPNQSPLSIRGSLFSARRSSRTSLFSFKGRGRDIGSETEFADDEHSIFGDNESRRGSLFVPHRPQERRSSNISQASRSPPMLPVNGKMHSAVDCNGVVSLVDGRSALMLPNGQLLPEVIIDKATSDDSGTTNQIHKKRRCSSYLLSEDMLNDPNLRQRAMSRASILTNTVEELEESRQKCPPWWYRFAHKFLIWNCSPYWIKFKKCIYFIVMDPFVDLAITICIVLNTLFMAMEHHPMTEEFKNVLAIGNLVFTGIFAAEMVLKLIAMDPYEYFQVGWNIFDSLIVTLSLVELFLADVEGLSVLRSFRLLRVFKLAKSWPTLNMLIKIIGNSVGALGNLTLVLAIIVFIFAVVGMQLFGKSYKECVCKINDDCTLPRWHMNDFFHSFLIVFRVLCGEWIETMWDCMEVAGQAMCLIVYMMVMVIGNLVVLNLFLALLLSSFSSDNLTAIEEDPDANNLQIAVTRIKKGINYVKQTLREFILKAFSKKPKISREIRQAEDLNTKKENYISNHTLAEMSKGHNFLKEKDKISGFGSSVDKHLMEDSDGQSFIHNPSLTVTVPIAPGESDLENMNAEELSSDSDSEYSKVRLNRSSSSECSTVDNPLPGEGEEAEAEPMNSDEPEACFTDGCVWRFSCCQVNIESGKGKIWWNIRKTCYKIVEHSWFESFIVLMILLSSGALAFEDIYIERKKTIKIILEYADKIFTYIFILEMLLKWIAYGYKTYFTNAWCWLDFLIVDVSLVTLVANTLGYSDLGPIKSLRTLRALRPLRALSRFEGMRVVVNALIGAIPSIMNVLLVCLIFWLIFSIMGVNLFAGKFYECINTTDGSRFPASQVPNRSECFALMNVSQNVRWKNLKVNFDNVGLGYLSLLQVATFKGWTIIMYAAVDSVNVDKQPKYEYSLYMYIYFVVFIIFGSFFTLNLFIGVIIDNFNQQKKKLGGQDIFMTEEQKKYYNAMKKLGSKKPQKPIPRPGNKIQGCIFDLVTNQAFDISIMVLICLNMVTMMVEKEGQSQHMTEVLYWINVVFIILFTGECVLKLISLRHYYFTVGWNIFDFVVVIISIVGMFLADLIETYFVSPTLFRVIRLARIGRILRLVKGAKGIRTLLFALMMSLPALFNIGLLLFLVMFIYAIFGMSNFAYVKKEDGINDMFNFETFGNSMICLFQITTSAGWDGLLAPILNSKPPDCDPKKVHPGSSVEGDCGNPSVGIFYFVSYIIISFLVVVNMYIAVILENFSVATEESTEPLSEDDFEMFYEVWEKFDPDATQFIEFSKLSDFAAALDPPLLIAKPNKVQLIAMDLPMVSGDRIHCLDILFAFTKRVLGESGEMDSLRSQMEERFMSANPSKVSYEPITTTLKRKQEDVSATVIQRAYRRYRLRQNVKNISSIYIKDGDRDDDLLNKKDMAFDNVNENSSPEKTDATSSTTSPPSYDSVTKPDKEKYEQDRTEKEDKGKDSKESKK

SMILES: CC[C@H](C)[C@@H]1NC(=O)[C@@H]2CSSC[C@@H]3NC(=O)[C@H](C(C)C)NC(=O)[C@H](CC(C)C)NC(=O)[C@H](CC(N)=O)NC(=O)[C@@H]4CCCN4C(=O)[C@H](CCCNC(=N)N)NC(=O)[C@H](CSSC[C@H](NC(=O)[C@@H](N)CC(=O)O)C(=O)N[C@@H](CC(C)C)C(=O)NCC(=O)N[C@@H](Cc4ccccc4)C(=O)N[C@@H](CCSC)C(=O)N[C@@H](CCCNC(=N)N)C(=O)N[C@@H](CCCCN)C(=O)N2)NC(=O)[C@H](CSSC[C@@H](C(=O)N[C@@H](CCCCN)C(=O)N[C@@H](Cc2ccc(O)cc2)C(=O)N[C@H](C(=O)N[C@@H](Cc2ccccc2)C(N)=O)C(C)C)NC(=O)[C@H](Cc2c[nH]c4ccccc24)NC(=O)[C@H](CCCCN)NC(=O)[C@H](Cc2cnc[nH]2)NC(=O)[C@H](C)NC(=O)[C@H](CCCNC(=N)N)NC(=O)[C@H](CO)NC3=O)NC(=O)[C@H](CCCCN)NC(=O)[C@H](CC(=O)O)NC(=O)[C@H](CC(N)=O)NC(=O)[C@H](CC(=O)O)NC(=O)[C@@H]2CCCN2C1=O [compound 10] (H-DCLGFMRKCIPDNDKCCRPNLVCSRAHKWCKYVF-NH2; disulfide 2-17, 9-23, 16-30)
- IC50 ([1]; Table 22, use, […]): 250 nM
- IC50 ([2]; IWQ Use Nav1.5 (μM)): 10.5 µM
- IC50 ([3]; Table 22, use, […]): 170 nM

SMILES: CC[C@H](C)[C@@H]1NC(=O)[C@@H]2CSSC[C@@H]3NC(=O)[C@H](C(C)C)NC(=O)[C@H](CC(C)C)NC(=O)[C@H](CC(N)=O)NC(=O)[C@@H]4CCCN4C(=O)[C@H](CCCNC(=N)N)NC(=O)[C@H](CSSC[C@H](NC(=O)[C@@H](N)CC(=O)O)C(=O)N[C@@H](CC(C)C)C(=O)NCC(=O)N[C@@H](C)C(=O)N[C@@H](CCSC)C(=O)N[C@@H](CCCNC(=N)N)C(=O)N[C@@H](CCCCN)C(=O)N2)NC(=O)[C@H](CSSC[C@@H](C(=O)N[C@@H](CCCCN)C(=O)N[C@@H](Cc2c[nH]c4ccccc24)C(=O)N[C@H](C(=O)N[C@@H](Cc2ccccc2)C(N)=O)C(C)C)NC(=O)[C@H](Cc2c[nH]c4ccccc24)NC(=O)[C@H](CCCCN)NC(=O)[C@H](Cc2c[nH]cn2)NC(=O)[C@H]([C@@H](C)O)NC(=O)[C@H](CCCNC(=N)N)NC(=O)[C@H](CO)NC3=O)NC(=O)[C@H](CCCCN)NC(=O)[C@H](CC(=O)O)NC(=O)[C@H](CC(N)=O)NC(=O)[C@H](CC(=O)O)NC(=O)[C@@H]2CCCN2C1=O [compound 253] (H-DCLGAMRKCIPDNDKCCRPNLVCSRTHKWCKWVF-NH2; disulfide 2-17, 9-23, 16-30)
- IC50 ([1]; use-dependent block, hNav1.7): 270 nM
- IC50 [2, 4]: 5 µM
- IC50 ([3]; use-dependent block, hNav1.3): 530 nM

SMILES: CC[C@H](C)[C@@H]1NC(=O)[C@@H]2CSSC[C@@H]3NC(=O)[C@H](C(C)C)NC(=O)[C@H](CC(C)C)NC(=O)[C@H](CC(N)=O)NC(=O)[C@@H]4CCCN4C(=O)[C@H](CCCNC(=N)N)NC(=O)[C@H](CSSC[C@H](NC(=O)[C@@H](N)CC(=O)O)C(=O)N[C@@H](CC(C)C)C(=O)NCC(=O)N[C@@H](Cc4ccccc4)C(=O)N[C@@H](C)C(=O)N[C@@H](CCCNC(=N)N)C(=O)N[C@@H](CCCCN)C(=O)N2)NC(=O)[C@H](CSSC[C@@H](C(=O)N[C@@H](CCCCN)C(=O)N[C@@H](Cc2ccc(O)cc2)C(=O)N[C@H](C(=O)N[C@@H](Cc2ccccc2)C(N)=O)C(C)C)NC(=O)[C@H](Cc2c[nH]c4ccccc24)NC(=O)[C@H](CCCCN)NC(=O)[C@H](Cc2cnc[nH]2)NC(=O)[C@H]([C@@H](C)O)NC(=O)[C@H](CCCNC(=N)N)NC(=O)[C@H](CO)NC3=O)NC(=O)[C@H](CCCCN)NC(=O)[C@H](CC(=O)O)NC(=O)[C@H](CC(N)=O)NC(=O)[C@H](CC(=O)O)NC(=O)[C@@H]2CCCN2C1=O [SEQ ID NO: 23] (H-DCLGFARKCIPDNDKCCRPNLVCSRTHKWCKYVF-NH2; disulfide 2-17, 9-23, 16-30)
- IC50 [1, 5]: 510 nM
- IC50 ([2]; IonWorks Quattro, clamped to −110 mV, depolarized to −10 mV, 5 min after compound, n=2, read-out: IWQ Use Nav1.5): 17.4 µM
- IC50 [3, 5]: 210 nM

SMILES: CC[C@H](C)[C@@H]1NC(=O)[C@@H]2CSSC[C@@H]3NC(=O)[C@H](C(C)C)NC(=O)[C@H](CC(C)C)NC(=O)[C@H](CC(N)=O)NC(=O)[C@@H]4CCCN4C(=O)[C@H](CCCNC(=N)N)NC(=O)[C@H](CSSC[C@H](NC(=O)[C@@H](N)CC(=O)O)C(=O)N[C@@H](CC(C)C)C(=O)NCC(=O)N[C@@H](Cc4ccccc4)C(=O)N[C@@H](CCSC)C(=O)N[C@@H](CCCNC(=N)N)C(=O)N[C@@H](CCCCN)C(=O)N2)NC(=O)[C@H](CSSC[C@@H](C(=O)N[C@@H](CCCCN)C(=O)N[C@@H](Cc2c[nH]c4ccccc24)C(=O)N[C@@H](Cc2cccc4ccccc24)C(=O)N[C@@H](Cc2ccccc2)C(N)=O)NC(=O)[C@H](Cc2c[nH]c4ccccc24)NC(=O)[C@H](CCCCN)NC(=O)[C@H](Cc2c[nH]cn2)NC(=O)[C@H]([C@@H](C)O)NC(=O)[C@H](CCCNC(=N)N)NC(=O)[C@H](CO)NC3=O)NC(=O)[C@H](CCCCN)NC(=O)[C@H](CC(=O)O)NC(=O)[C@H](CC(N)=O)NC(=O)[C@H](CC(=O)O)NC(=O)[C@@H]2CCCN2C1=O [compound 455] (H-DCLGFMRKCIPDNDKCCRPNLVCSRTHKWCKW[1Nal]F-NH2; disulfide 2-17, 9-23, 16-30)
- IC50 ([1]; use-dependent block, hNav1.7): 20 nM
- IC50 [2, 4]: > 5 µM
- IC50 ([3]; use-dependent block, hNav1.3): 40 nM

SMILES: CC[C@@H]1NC(=O)CNC(=O)[C@H](CC(C)C)NC(=O)[C@@H](NC(=O)[C@@H](N)CC(=O)O)CSSC[C@@H]2NC(=O)[C@@H]3CSSC[C@@H](C(=O)N[C@@H](CCCCN)C(=O)N[C@@H](Cc4ccc(O)cc4)C(=O)N[C@H](C(=O)N[C@@H](Cc4ccccc4)C(N)=O)C(C)C)NC(=O)[C@H](Cc4c[nH]c5ccccc45)NC(=O)[C@H](CCCCN)NC(=O)[C@H](Cc4c[nH]cn4)NC(=O)[C@H]([C@@H](C)O)NC(=O)[C@H](CCCNC(=N)N)NC(=O)[C@H](CO)NC(=O)[C@H](CSSC[C@H](NC(=O)[C@H](CCCCN)NC(=O)[C@H](CCCNC(=N)N)NC(=O)[C@H](Cc4ccccc4)NC1=O)C(=O)N[C@@H]([C@@H](C)CC)C(=O)N1CCC[C@H]1C(=O)N[C@@H](CC(=O)O)C(=O)N[C@@H](CC(N)=O)C(=O)N[C@@H](CC(=O)O)C(=O)N[C@@H](CCCCN)C(=O)N3)NC(=O)[C@H](C(C)C)NC(=O)[C@H](CC(C)C)NC(=O)[C@H](CC(N)=O)NC(=O)[C@@H]1CCCN1C(=O)[C@H](CCCNC(=N)N)NC2=O [compound 605] (H-DCLG[Abu]FRKCIPDNDKCCRPNLVCSRTHKWCKYVF-NH2; disulfide 2-17, 9-23, 16-30)
- IC50 ([1]; use-dependent block, hNav1.7): 170 nM
- IC50 [2, 4]: 9.5 µM
- IC50 ([3]; use-dependent block, hNav1.3): 360 nM

SMILES: CC[C@H](C)[C@@H]1NC(=O)[C@@H]2CSSC[C@@H]3NC(=O)[C@H](CO)NC(=O)[C@H](CC(C)C)NC(=O)[C@H](CC(N)=O)NC(=O)[C@@H]4CCCN4C(=O)[C@H](CCCNC(=N)N)NC(=O)[C@H](CSSC[C@H](NC(=O)[C@@H](N)CC(=O)O)C(=O)N[C@@H](CC(C)C)C(=O)NCC(=O)N[C@@H](Cc4ccccc4)C(=O)N[C@@H](CCSC)C(=O)N[C@@H](CCCNC(=N)N)C(=O)N[C@@H](CCCCN)C(=O)N2)NC(=O)[C@H](CSSC[C@@H](C(=O)N[C@@H](CCCCN)C(=O)N[C@@H](Cc2ccc(O)cc2)C(=O)N[C@H](C(=O)N[C@@H](Cc2ccccc2)C(N)=O)C(C)C)NC(=O)[C@H](Cc2c[nH]c4ccccc24)NC(=O)[C@H](CCCCN)NC(=O)[C@H](Cc2c[nH]cn2)NC(=O)[C@H]([C@@H](C)O)NC(=O)[C@H](CCCNC(=N)N)NC(=O)[C@H](CO)NC3=O)NC(=O)[C@H](CCCCN)NC(=O)[C@H](CC(=O)O)NC(=O)[C@H](CC(N)=O)NC(=O)[C@H](CC(=O)O)NC(=O)[C@@H]2CCCN2C1=O [compound 323] (H-DCLGFMRKCIPDNDKCCRPNLSCSRTHKWCKYVF-NH2; disulfide 2-17, 9-23, 16-30)
- IC50 ([1]; Use): 100 nM
- IC50 ([2]; IonWorks Quattro, Use, read-out: IWQ Use Nav1.5): 4.42 µM
- IC50 ([3]; Use): 90 nM

SMILES: CC[C@H](C)[C@@H]1NC(=O)[C@@H]2CSSC[C@@H]3NC(=O)[C@H](C(C)C)NC(=O)[C@H](CC(C)C)NC(=O)[C@H](CC(N)=O)NC(=O)[C@@H]4CCCN4C(=O)[C@H](CCCNC(=N)N)NC(=O)[C@H](CSSC[C@H](NC(=O)[C@@H](N)CC(=O)O)C(=O)N[C@@H](CC(C)C)C(=O)NCC(=O)N[C@@H](Cc4ccccc4)C(=O)N[C@@H](CCSC)C(=O)N[C@@H](CCCNC(=N)N)C(=O)N[C@@H](CCCCN)C(=O)N2)NC(=O)[C@H](CSSC[C@@H](C(=O)N[C@@H](CCCNC(=N)N)C(=O)N[C@@H](Cc2ccc(O)cc2)C(=O)N[C@H](C(=O)N[C@@H](Cc2ccccc2)C(N)=O)C(C)C)NC(=O)[C@H](Cc2c[nH]c4ccccc24)NC(=O)[C@H](CCCCN)NC(=O)[C@H](Cc2cnc[nH]2)NC(=O)[C@H]([C@@H](C)O)NC(=O)[C@H](CCCNC(=N)N)NC(=O)[C@H](CO)NC3=O)NC(=O)[C@H](CCCCN)NC(=O)[C@H](CC(=O)O)NC(=O)[C@H](CC(N)=O)NC(=O)[C@H](CC(=O)O)NC(=O)[C@@H]2CCCN2C1=O [compound 73] (H-DCLGFMRKCIPDNDKCCRPNLVCSRTHKWCRYVF-NH2; disulfide 2-17, 9-23, 16-30)
- IC50 ([1]; Table 25, use, […]): 1360 nM
- IC50 ([2]; Table 25, IonWorks Quattro, use, […], read-out: IWQ Use Nav1.5): 9.17 µM
- IC50 ([3]; Table 25, use, […]): 4950 nM

— patent publication US9340590B2 (priority 2011, dated 2016)
